{"source": "patent US10801054B2", "about": "(priority 2013, dated 2020)", "tested_on": "Phage litmus", "note": "Where “and” joins values, the source holds several entries; their conditions need not be identical. Equal entries are not always repeated.", "data": [{"smiles": "CCCCCC", "note": "[Hexane, n-hexane]", "values": [{"measurement": "Color change of Phage litmus bands upon exposure", "value": "immediately changed color"}, {"measurement": "Red-green-blue (RGB) color differences R3", "value": "0.69 and 0.99 and 0.53"}, {"measurement": "Time in which all color matrices of the Phage litmus responded", "value": 30, "unit": "s"}]}, {"smiles": "CCOCC", "note": "[Ether, diethyl ether]", "values": [{"measurement": "Color change of Phage litmus bands upon exposure", "value": "immediately changed color"}, {"measurement": "Red-green-blue (RGB) color differences G1", "value": "0.38 and 0.56 and 0.39"}, {"measurement": "Red-green-blue (RGB) color differences R1", "value": "1.31 and 1.20 and 1.24"}, {"measurement": "Red-green-blue (RGB) color differences R3", "value": "1.15 and 1.53 and 0.91"}, {"measurement": "Red-green-blue (RGB) color differences R4", "value": "1.30 and 1.54 and 1.12"}, {"measurement": "Time in which all color matrices of the Phage litmus responded", "value": 30, "unit": "s"}]}, {"smiles": "CCO", "note": "[EtOH, ethanol]", "values": [{"measurement": "Color change of Phage litmus bands upon exposure", "value": "immediately changed color"}, {"measurement": "Red-green-blue (RGB) color differences G3", "value": "3.32 and 2.87 and 2.98"}, {"measurement": "Red-green-blue (RGB) color differences R1", "value": "1.22 and 1.81 and 1.06"}, {"measurement": "Red-green-blue (RGB) color differences R3", "value": "2.54 and 1.97 and 2.26"}, {"measurement": "Time in which all color matrices of the Phage litmus responded", "value": 30, "unit": "s"}]}]}
